According to patent US5736510A, “Antibiotics 10381v, w, x,y, z1, z2, pre-b and t” (priority 1996, dated 1998):
Entries after “also recorded” stand apart in the source; their conditions may differ. Where two headings read alike, the source gives them in different places.

Columns and labels:
Type in all cases: cell-based
[1] = tested on: B. thetaiotaomicron; conditions: strain UC9014
Description: (§1) The assay measures the ability of a compound to inhibit the growth of certain types of anaerobic bacteria which normally inhabit the gut of poultry, swine or cattle.
(§2) Two mg/ml solutions of the drugs to be tested are made in 10% v/v ethanol/water. This stock is then diluted to one mg per ml and then further diluted through a series of ten-two fold dilutions. At each concentration an aliquot is placed in a sterile petri plate. Nine volumes of molten agar are then added to each plate, mixed and allowed to harden at room temperature. These plates are then transferred to a Coy chamber and allowed to dry and equilibrate with the oxygen free atmosphere.
(§3) Organisms used for MIC testing are inoculated into broth media, and incubated 18-24 h at 39° C. prior to use. The cultures are then diluted to equal the turbidity of a 0.5 MacFarland barium sulfate standard, except for the porcine isolates P108-3C1, P105-1C3 and P105-1C4 which are diluted 1:1. All inoculations and dilutions are performed in the anaerobic chamber using broth media and syringe transfer through the butyl robber stoppers.
(§4) Freshly prepared and diluted cultures are loaded into the wells of a Steers replicator device. This apparatus can dispense ca 10 μl of each of 32 cultures onto the surface of the preincubated agar plates. One hour after the inoculation, the inoculum will have been absorbed and the plates are inverted and incubated at 38°-39° C. for 48 h. Plates are then removed from the chamber and the MIC for the test compounds determined. MIC's are reported as the lowest concentration of a compound which prevented detectable growth of a test organism on the agar plates. […] Thus, each set of test plates yields individual MIC values for each of the 32 test organisms.

[2] = tested on: R. amylophilus; conditions: strain H18
[3] = tested on: L. multiparus; conditions: strain 40
[4] = tested on: E. lentum; conditions: strain L-34; Table IV (separate study)
[5] = tested on: S. bovis; conditions: strain JB1
[6] = tested on: S. hyodysenteriae; design: unit not given here; conditions: Table IV (separate study)
Description: as §1, §2, §3, §4

[7] = tested on: anaerobic bacteria which normally inhabit the gut of poultry, swine or cattle; test: in vitro MIC assay, overall comparison of components across the test organisms
Description: as §1, §2, §3, §4

[8] = tested on: E. ruminantium; conditions: strain GA195
[9] = tested on: M. elsdenii; conditions: strain B159
[10] = tested on: B. fragilis; conditions: strain UC9370
[11] = tested on: C. perfringens; design: Minimal Inhibitory Concentration (bioactivity data): unit not given here; conditions: for M.I.C.: Table III, mass basis, no correction for purity; for Minimal Inhibitory Concentration (bioactivity data): Table IV (separate study)
[12] = tested on: F. necrophorum; conditions: for M.I.C.: Table III, mass basis, no correction for purity; for Minimal Inhibitory Concentration (bioactivity data): Table IV (separate study)
[13] = tested on: S. faecalis; conditions: for M.I.C.: Table III, mass basis, no correction for purity; for Minimal Inhibitory Concentration (bioactivity data): Table IV (separate study)
[14] = tested on: P. ruminicola; conditions: strain 118B
[15] = tested on: B. fibrisolvens; conditions: for M.I.C.: Table III, mass basis, no correction for purity; for Minimal Inhibitory Concentration (bioactivity data): Table IV (separate study)
[16] = tested on: R. flavefaciens; conditions: for M.I.C.: Table III, mass basis, no correction for purity; for Minimal Inhibitory Concentration (bioactivity data): Table IV (separate study)
[17] = tested on: S. ruminantium; conditions: for M.I.C.: Table III, mass basis, no correction for purity; for Minimal Inhibitory Concentration (bioactivity data): Table IV (separate study)
[18] = Table III, mass basis, no correction for purity

C=C(NC(=O)c1ccc2c(n1)-c1coc(n1)C(=C)NC(=O)C(=C)NC(=O)c1nc(oc1C)C(=CC)NC(=O)c1csc(n1)C(OC)NC(=O)c1nc(oc1C)C(=CC(C)O)NC(=O)C(C(C)O)NC(=O)c1csc-2n1)C(N)=O (stereo not drawn) [Antibiotic 10381y, 52-de[1-[[[1-(aminocarbonyl)ethenyl]amino]carbonyl]ethenyl]-sulfomycin I]
M.I.C. [1, 18]: < 0.2 µg/mL | Minimal Inhibitory Concentration (bioactivity data) ([1]; Table IV (separate study)): 50.0 | M.I.C. [2, 18]: 100.0 µg/mL | Minimal Inhibitory Concentration (bioactivity data) ([2]; Table IV (separate study)): < 0.2 | M.I.C. [3, 18]: < 0.2 µg/mL | Minimal Inhibitory Concentration (bioactivity data) ([3]; Table IV (separate study)): 12.5 | Minimal Inhibitory Concentration (bioactivity data) [4]: < 0.2 | M.I.C. [5, 18]: 0.4 µg/mL | Minimal Inhibitory Concentration (bioactivity data) ([5]; Table IV (separate study)): 0.8 | Minimal Inhibitory Concentration (bioactivity data) ([6]; strain 16-4): > 100 | Minimal Inhibitory Concentration (bioactivity data) ([6]; strain B204): > 100 | bioactivity relative to the 10381b antibiotic complex or the 10381b (10381b2) component ([7]; against a variety of microorganisms): increased antimicrobial activity; also recorded: about double | in vitro activity ranking of the individual components ([7]; conclusion from Tables III and IV): most active | M.I.C. [8, 18]: 6.3 µg/mL | Minimal Inhibitory Concentration (bioactivity data) ([8]; Table IV (separate study)): 0.8 | M.I.C. [9, 18]: > 100.0 µg/mL | Minimal Inhibitory Concentration (bioactivity data) ([9]; Table IV (separate study)): > 100 | M.I.C. [10, 18]: 1.6 µg/mL | Minimal Inhibitory Concentration (bioactivity data) ([10]; Table IV (separate study)): 50.0 | M.I.C. ([11]; strain 71A02): < 0.2 µg/mL | Minimal Inhibitory Concentration (bioactivity data) ([11]; strain 71A02): < 0.2 | M.I.C. ([11]; strain A82-1): 0.8 µg/mL | Minimal Inhibitory Concentration (bioactivity data) ([11]; strain A82-1): 12.5 | M.I.C. ([11]; strain A83-3): < 0.2 µg/mL | Minimal Inhibitory Concentration (bioactivity data) ([11]; strain A83-3): < 0.2 | M.I.C. ([11]; strain A83-RKP): 0.4 µg/mL | Minimal Inhibitory Concentration (bioactivity data) ([11]; strain A83-RKP): < 0.2 | M.I.C. ([11]; strain CCS1-11): 0.8 µg/mL | Minimal Inhibitory Concentration (bioactivity data) ([11]; strain CCS1-11): < 0.2 | M.I.C. ([11]; strain CCS2-09): < 0.2 µg/mL | Minimal Inhibitory Concentration (bioactivity data) ([11]; strain CCS2-09): < 0.2 | M.I.C. ([11]; strain P1051C3): 12.5 µg/mL | Minimal Inhibitory Concentration (bioactivity data) ([11]; strain P1051C3): 6.3 | M.I.C. ([11]; strain P1083C1): < 0.2 µg/mL | Minimal Inhibitory Concentration (bioactivity data) ([11]; strain P1083C1): 0.8 | M.I.C. ([11]; strain RF1B04): < 0.2 µg/mL | Minimal Inhibitory Concentration (bioactivity data) ([11]; strain RF1B04): < 0.2 | M.I.C. ([11]; strain UC9452): < 0.2 µg/mL | Minimal Inhibitory Concentration (bioactivity data) ([11]; strain UC9452): 0.8 | M.I.C. ([12]; strain FN4070): 25.0 µg/mL | Minimal Inhibitory Concentration (bioactivity data) ([12]; strain FN4070): 50.0 | M.I.C. ([12]; strain FN5052): 25.0 µg/mL | Minimal Inhibitory Concentration (bioactivity data) ([12]; strain FN5052): 50.0 | M.I.C. ([13]; strain 71A01): 6.3 µg/mL | Minimal Inhibitory Concentration (bioactivity data) ([13]; strain 71A01): 6.3 | M.I.C. ([13]; strain CCS1-03): 1.6 µg/mL | Minimal Inhibitory Concentration (bioactivity data) ([13]; strain CCS1-03): 3.1 | M.I.C. ([13]; strain P1051C4): 1.6 µg/mL | Minimal Inhibitory Concentration (bioactivity data) ([13]; strain P1051C4): 0.8 | M.I.C. [14, 18]: < 0.2 µg/mL | Minimal Inhibitory Concentration (bioactivity data) ([14]; Table IV (separate study)): < 0.2 | M.I.C. ([15]; strain 49): < 0.2 µg/mL | Minimal Inhibitory Concentration (bioactivity data) ([15]; strain 49): 0.4 | M.I.C. ([15]; strain D1): < 0.2 µg/mL | Minimal Inhibitory Concentration (bioactivity data) ([15]; strain D1): < 0.2 | M.I.C. ([16]; strain C94): 6.3 µg/mL | Minimal Inhibitory Concentration (bioactivity data) ([16]; strain C94): 0.8 | M.I.C. ([16]; strain FD1): < 0.2 µg/mL | Minimal Inhibitory Concentration (bioactivity data) ([16]; strain FD1): 0.4 | M.I.C. ([17]; strain GA31): 25.0 µg/mL | Minimal Inhibitory Concentration (bioactivity data) ([17]; strain GA31): < 0.2 | M.I.C. ([17]; strain GA192): > 100.0 µg/mL | Minimal Inhibitory Concentration (bioactivity data) ([17]; strain GA192): < 0.2
